Tests used:
[1] = test system: circulating gluten-specific CD4+ T cells in whole blood of HLA-DQ8+ CeD patients; assay: Whole blood IL-2 cytokine release assay, HLA-DQ8+ CeD participants; format: cell-based, human; settings: HLA-DQ8+ donors; whole blood, 24 hours
Text: (§1) FIGS. 11A-11B are graphs depicting the evaluation of the ability of various molarities of three gliadin polypeptides (Cv6, Av6, and 4K), two peptide mixes containing either the four individual building blocks BB1, BB2a, BB3a and BB4a (BB1-4a) or two Nexvax2 peptides (Nex01/02), and six individual building blocks or peptides (BB1, BB2a, BB3a, BB4a, Nex01, and Nex02) to restimulate gluten-specific T cell collected from HLA-DQ8+ CeD patients using a whole blood IL-2 release assay. The whole blood cytokine release assay was performed in four HLA-DQ8+ participants with biopsy-confirmed celiac disease as described in FIG. 10. Data are expressed in femtogram/mL of plasma (A), or as fold change from the negative control (PBS 1×) (B). Symbols represent individual participants (patient ID); bars represent the median+interquartile range of individual values.
(§2) The overarching objective of this assay was to validate that the polypeptide constructs (Cv6, Av6, and 4K) can be recognized and processed by human APCs, and they can then promote the activation of gluten-specific effector/memory CD4^+ T cells in CeD patients. A Cytokine Release Assay (CRA) was used (previously described in the literature: Anderson et al., Clinical & Experimental Immunology, 2021 June; 204(3): 321-334; and in Hardy et al., Frontiers in Immunology, 2021, Vol. 12, Article 661662, the entire contents of each of which are incorporated by reference herein). This assay quantifies IL-2 produced by circulating gluten-specific CD4^+ T cells present in the blood of CeD patients upon in vitro stimulation with gluten-derived antigens. Due to the extremely high sensitivity of this CRA, no oral exposure to gluten was required prior to blood sampling.
(§3) Informed consent was obtained from all subjects prior to blood collection.
(§4) Unfractionated blood (225 μL per well of a 96-well plate) was then rapidly restimulated for 24 hours with each of three of the polypeptide constructs provided herein (SEQ ID NO:23 wherein X is C [Cv6, i.e., SEQ ID NO:49], SEQ ID NO:23 wherein X is A [Av6, i.e., SEQ ID NO:50], and SEQ ID NO:46 [4K]) and with each of four individual building blocks (SEQ ID NO:15 wherein Z is E [BB1], SEQ ID NO:16 wherein Z is E [BB2a], SEQ ID NO:20 wherein Z is E [BB3a], and SEQ ID NO:18 wherein Z is E [BB4a]). The concentrations of the polypeptide constructs ranged from 0.5 to 10 micromolar, and the concentration for each individual building block was 10 micromolar. […] These two peptides comprise an N-terminal pyroglutamate and a C-terminal amide. Nex01 and Nex02 were the two gliadin peptides used in the Nexvax2 immunotherapeutic vaccine that was intended to restore immune tolerance to gluten in HLA-DQ2.5+ CeD patients. A positive control consisted of blood cells stimulated with phytohemagglutinin (PHA) (10 μg/mL) which activates all T cells regardless of their antigen specificity (i.e., a polyclonal activator). Negative controls consisted of cells treated with buffer only (PBS 1×).
(§5) After incubation for 24 hours at 37° C. and 5% CO2, plasma was separated from whole blood by centrifugation. Plasma was collected from each well and replicates (n=6 replicates per test) pooled. All plasma samples were frozen at −80° C. until analysis. Single plasma aliquots (100 μL) were thawed and analyzed in duplicate using MSD IL-2 S-plex according to the manufacturer's instructions.

[2] = test system: circulating gluten-specific CD4+ T cells in whole blood of HLA-DQ2+ CeD patients; assay: Whole blood IL-2 cytokine release assay, HLA-DQ2+ CeD participants; format: cell-based, human; settings: HLA-DQ2+ donors; whole blood, 24 hours
Text: as §1, with “10A-10B” for “11A-11B”, “HLA-DQ2+” for “HLA-DQ8+”, “six HLA-DQ2+” for “four HLA-DQ8+”, “disease. Whole blood was stimulated with the three gliadin polypeptide constructs Cv6, Av6, and 4K at 10, 2.5, and 0.5 μM final molarities,” for “disease”, “indicated. Alternatively, whole blood was stimulated with a mix of peptides containing either the four building blocks BB1, BB2a, BB3a, and BB4a (BB1-4a) or Nex01 and Nex 02 (Nex01/02) at 10, 2.5, and 0.5 μM final molarities. Building blocks (BB1, BB2a, BB3a, and BB4a), Nex01, and Nex02 were also tested as individual peptides, at a single concentration of 10 μM. After 24 hours of incubation, the concentration of IL-2 was quantified from plasma using an MSD IL-2 S-plex ELISA.” for “described in FIG. 10.”, “represent” for “represent the”
as §2, §3, §4, §5

[3] = Description: Freeze-dried aliquots of the three gliadin polypeptide constructs Cv6, Av6, and 4K, as well as the four building blocks BB1, BB2a, BB3a, and BB4a were reconstituted in pure water, loaded on a PET-Ti backing film and dried in an oven (at ~30° C.). Immediately after drying, dry deposits were reconstituted at five different molarities (approximately 1.8, 0.91, 0.45, 0.091 or 0.045 mM) by pipetting up and down with either pure water (A), PBS 1× (B), or artificial perspiration (C). The concentration in soluble material was measured by HPLC at 215 nm from the solutions recovered from PET-Ti backing films. Data are median+interquartile range of the different molarities tested. Data are expressed as the percentage of soluble material recovered, based on the expected concentration (all values above 100% were set to 100).
Immediately after drying, dry deposits were reconstituted at five different concentrations (20, 10, 5, 1 and 0.5 mg/mL) by pipetting up and down with either pure water (A), PBS 1× (B), or artificial perspiration (C). The concentration in soluble material was measured by HPLC at 215 nm from the solutions recovered from PET-Ti backing films. Data are presented as median+interquartile range of the different molarities tested. Data are expressed as the percentage of soluble material recovered, based on the expected concentration (all values above 100% were set to 100). (D) As an illustration, photographs of the reconstitution of dry deposits with pure water are shown and annotated.
Immediately after drying, deposits were reconstituted by pipetting up and down with each of pure water, PBS 1× at pH 7.0, and artificial perspiration at pH 4.5, each at five different molarities (approximately 1.8, 0.91, 0.45, 0.091, and 0.045 mM). The concentration in soluble material was measured by HPLC at 215 nm.
Immediately after drying, patch deposits were reconstituted by pipetting up and down with each of pure water, PBS 1× at pH 7.0, and artificial perspiration at pH 4.5, at five different concentrations (20, 10, 5, 1, and 0.5 mg/mL). The concentration in soluble material was measured by HPLC at 215 nm.

median percentage of soluble material recovered from the patch backing film [3]	Substance	IL-2 response (in words) [1]	IL-2 response (in words) [2]
93-100%	Ac-QLQPFPQPELPYPQPELPYPQPELPYPQPQP-NH2 [BB1]	no or low responses	potent IL-2 responses
93-100%	H-PQQPFPQPEQPFPWQPQ-NH2 [BB3a]	no or low responses	potent IL-2 responses

Source: patent US20260265316A1, “IMMUNOTHERAPEUTIC METHODS, COMPOUNDS, AND COMPOSITIONS FOR TREATING OR PREVENTING CELIAC DISEASE” (DBV Technologies, priority 2023, published 2026)
